Data from ChEMBL document CHEMBL3120142 (J Med Chem, 2014).
Active and inactive are the calls of the source. The calls are words filed in the database; no cut-off is given here.

System: Influenza A virus
Assay type: functional, organism-based
Conditions: A/Berlin/55/08(H1N1), MDCK

| Structure (SMILES) | Activity |
| --- | --- |
| CCC(CC)O[C@@H]1C=C(C(=O)O)C[C@H](N)[C@H]1NC(C)=O [OSELTAMIVIR CARBOXYLATE] | Active |
| CC(=O)N[C@H]1[C@H]([C@H](O)[C@H](O)CO)OC(C(=O)O)=C[C@@H]1NC(=N)N [ZANAMIVIR] | Active |
